Target: T1, Alpha-2A adrenergic receptor (Homo sapiens, UniProt P08913); further: in other assays of this panel Not Active means under 50% inhibition at 10 µM
T1 sequence (P08913 whole entry): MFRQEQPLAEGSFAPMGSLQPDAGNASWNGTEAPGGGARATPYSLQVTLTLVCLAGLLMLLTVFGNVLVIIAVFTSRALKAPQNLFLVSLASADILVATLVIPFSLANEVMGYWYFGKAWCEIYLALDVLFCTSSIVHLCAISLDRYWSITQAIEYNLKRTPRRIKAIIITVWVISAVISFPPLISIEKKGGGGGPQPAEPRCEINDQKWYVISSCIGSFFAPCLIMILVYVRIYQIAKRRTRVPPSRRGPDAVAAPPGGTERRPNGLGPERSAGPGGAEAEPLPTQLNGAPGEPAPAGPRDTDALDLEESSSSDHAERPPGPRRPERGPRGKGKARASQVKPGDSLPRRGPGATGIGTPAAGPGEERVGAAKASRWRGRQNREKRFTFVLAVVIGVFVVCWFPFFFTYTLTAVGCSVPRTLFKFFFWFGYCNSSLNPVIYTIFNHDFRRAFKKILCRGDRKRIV
Assay: not given
Assay type: cell membranes, Sf9, Membrane
Conditions: read-out: IC50

Structure (SMILES) | IC50 [nM]
CN(C)c1ccc(C(=C2C=CC(=[N+](C)C)C=C2)c2ccc(N(C)C)cc2)cc1.[Cl-] [GENTIAN VIOLET] | 536

Same assay, conditions: read-out: Ki

Structure (SMILES) | Ki [nM]
CN(C)c1ccc(C(=C2C=CC(=[N+](C)C)C=C2)c2ccc(N(C)C)cc2)cc1.[Cl-] [GENTIAN VIOLET] | 201

Same assay, conditions: sf9

Structure (SMILES) | IC50
Cc1ccc(S(=O)(=O)NC(=O)NN2CC3CCCC3C2)cc1 (centres undefined) [GLICLAZIDE] | Not Active
CC(C)Cc1ccc(C(C)C(=O)O)cc1 (centres undefined) [IBUPROFEN] | Not Active
COc1ccc2c(c1)c(CC(=O)O)c(C)n2C(=O)c1ccc(Cl)cc1 [INDOMETHACIN] | Not Active
CCc1c2c(nc3ccc(OC(=O)N4CCC(N5CCCCC5)CC4)cc13)-c1cc3c(c(=O)n1C2)COC(=O)[C@]3(O)CC [IRINOTECAN] | Not Active
CC(C(=O)O)c1cccc(C(=O)c2ccccc2)c1 (centres undefined) [KETOPROFEN] | Not Active
Nc1ccn([C@@H]2CS[C@H](CO)O2)c(=O)n1 [LAMIVUDINE] | Not Active
O=S(=O)([O-])CCS.[Na+] [MESNA] | Not Active
C#C[C@]1(O)CC[C@H]2[C@@H]3CCc4cc(OC)ccc4[C@H]3CC[C@@]21C [MESTRANOL] | Not Active

Target: T2, Calcitonin receptor (Homo sapiens, UniProt P30988); further: in other assays of this panel Not Active means under 50% inhibition at 10 µM
T2 sequence (P30988 whole entry): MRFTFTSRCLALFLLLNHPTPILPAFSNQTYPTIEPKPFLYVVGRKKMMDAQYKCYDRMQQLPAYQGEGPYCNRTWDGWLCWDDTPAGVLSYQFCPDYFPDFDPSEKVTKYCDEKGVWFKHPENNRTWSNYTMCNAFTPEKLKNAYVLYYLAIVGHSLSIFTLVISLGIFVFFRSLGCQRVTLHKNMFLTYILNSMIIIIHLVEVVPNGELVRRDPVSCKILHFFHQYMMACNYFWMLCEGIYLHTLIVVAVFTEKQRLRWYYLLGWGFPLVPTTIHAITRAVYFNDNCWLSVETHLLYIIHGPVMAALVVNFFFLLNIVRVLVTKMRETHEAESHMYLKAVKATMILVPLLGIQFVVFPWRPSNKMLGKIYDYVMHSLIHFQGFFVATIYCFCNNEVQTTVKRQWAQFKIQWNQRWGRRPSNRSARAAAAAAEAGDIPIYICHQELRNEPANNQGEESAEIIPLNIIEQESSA
Assay: not given
Assay type: cell membranes, Membrane
Conditions: t47d

Structure (SMILES) | IC50
CN(C)c1ccc(C(=C2C=CC(=[N+](C)C)C=C2)c2ccc(N(C)C)cc2)cc1.[Cl-] [GENTIAN VIOLET] | Not Active
Cc1ccc(S(=O)(=O)NC(=O)NN2CC3CCCC3C2)cc1 (centres undefined) [GLICLAZIDE] | Not Active
CC(C)Cc1ccc(C(C)C(=O)O)cc1 (centres undefined) [IBUPROFEN] | Not Active
COc1ccc2c(c1)c(CC(=O)O)c(C)n2C(=O)c1ccc(Cl)cc1 [INDOMETHACIN] | Not Active
CCc1c2c(nc3ccc(OC(=O)N4CCC(N5CCCCC5)CC4)cc13)-c1cc3c(c(=O)n1C2)COC(=O)[C@]3(O)CC [IRINOTECAN] | Not Active
CC(C(=O)O)c1cccc(C(=O)c2ccccc2)c1 (centres undefined) [KETOPROFEN] | Not Active
Nc1ccn([C@@H]2CS[C@H](CO)O2)c(=O)n1 [LAMIVUDINE] | Not Active
O=S(=O)([O-])CCS.[Na+] [MESNA] | Not Active
C#C[C@]1(O)CC[C@H]2[C@@H]3CCc4cc(OC)ccc4[C@H]3CC[C@@]21C [MESTRANOL] | Not Active

Target: T3, 5-hydroxytryptamine receptor 2C (Homo sapiens, UniProt P28335)
T3 sequence (P28335 whole entry): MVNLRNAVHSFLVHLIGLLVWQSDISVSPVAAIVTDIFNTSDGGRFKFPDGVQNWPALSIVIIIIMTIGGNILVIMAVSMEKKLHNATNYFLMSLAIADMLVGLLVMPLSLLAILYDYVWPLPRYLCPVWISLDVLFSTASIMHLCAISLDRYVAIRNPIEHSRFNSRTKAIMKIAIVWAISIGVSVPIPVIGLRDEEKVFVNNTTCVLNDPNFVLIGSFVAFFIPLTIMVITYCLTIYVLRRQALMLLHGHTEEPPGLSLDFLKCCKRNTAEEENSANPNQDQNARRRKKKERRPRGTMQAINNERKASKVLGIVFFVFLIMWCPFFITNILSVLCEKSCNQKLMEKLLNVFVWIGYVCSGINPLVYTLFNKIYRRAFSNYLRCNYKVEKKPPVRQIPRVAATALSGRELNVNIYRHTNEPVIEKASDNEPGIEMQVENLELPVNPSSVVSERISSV
Assay: DRUGMATRIX: Serotonin (5-Hydroxytryptamine) 5-HT2C radioligand binding (ligand: [3H] Mesulergine)
Assay type: cell membranes, CHO-K1, Membrane
Conditions: cho-k1; Not Active = under 50% inhibition at 10 µM

Structure (SMILES) | IC50
CN(C)c1ccc(C(=C2C=CC(=[N+](C)C)C=C2)c2ccc(N(C)C)cc2)cc1.[Cl-] [GENTIAN VIOLET] | Not Active
Cc1ccc(S(=O)(=O)NC(=O)NN2CC3CCCC3C2)cc1 (centres undefined) [GLICLAZIDE] | Not Active
CC(C)Cc1ccc(C(C)C(=O)O)cc1 (centres undefined) [IBUPROFEN] | Not Active
COc1ccc2c(c1)c(CC(=O)O)c(C)n2C(=O)c1ccc(Cl)cc1 [INDOMETHACIN] | Not Active
CCc1c2c(nc3ccc(OC(=O)N4CCC(N5CCCCC5)CC4)cc13)-c1cc3c(c(=O)n1C2)COC(=O)[C@]3(O)CC [IRINOTECAN] | Not Active
CC(C(=O)O)c1cccc(C(=O)c2ccccc2)c1 (centres undefined) [KETOPROFEN] | Not Active
Nc1ccn([C@@H]2CS[C@H](CO)O2)c(=O)n1 [LAMIVUDINE] | Not Active
O=S(=O)([O-])CCS.[Na+] [MESNA] | Not Active
C#C[C@]1(O)CC[C@H]2[C@@H]3CCc4cc(OC)ccc4[C@H]3CC[C@@]21C [MESTRANOL] | Not Active

Target: T4, Polyunsaturated fatty acid lipoxygenase ALOX15 (Oryctolagus cuniculus, UniProt P12530);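 further: inhibition of 15-lipoxygenase enzyme activity measured with linoleic acid as the substrate; in other assays of this panel Not Active means under 50% inhibition at 10 µM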
T4 sequence (P12530 whole entry): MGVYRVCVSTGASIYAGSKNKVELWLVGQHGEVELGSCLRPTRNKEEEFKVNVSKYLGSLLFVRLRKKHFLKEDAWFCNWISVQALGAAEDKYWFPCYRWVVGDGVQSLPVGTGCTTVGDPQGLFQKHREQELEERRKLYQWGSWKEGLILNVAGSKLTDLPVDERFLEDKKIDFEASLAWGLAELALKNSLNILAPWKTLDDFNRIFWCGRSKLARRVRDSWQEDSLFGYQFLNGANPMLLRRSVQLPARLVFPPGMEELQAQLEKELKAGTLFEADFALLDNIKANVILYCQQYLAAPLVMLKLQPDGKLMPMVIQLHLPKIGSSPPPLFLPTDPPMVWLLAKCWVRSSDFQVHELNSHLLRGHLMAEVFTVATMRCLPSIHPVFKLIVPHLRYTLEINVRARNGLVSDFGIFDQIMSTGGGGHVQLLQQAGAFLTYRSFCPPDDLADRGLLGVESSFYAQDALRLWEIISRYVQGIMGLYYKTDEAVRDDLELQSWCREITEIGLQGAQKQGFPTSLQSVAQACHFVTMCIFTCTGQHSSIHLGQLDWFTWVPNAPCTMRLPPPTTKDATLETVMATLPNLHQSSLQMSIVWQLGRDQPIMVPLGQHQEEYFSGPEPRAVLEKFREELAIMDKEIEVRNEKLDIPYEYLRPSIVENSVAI
Assay: biochemical
Assay type: tissue-based, Reticulocytes
Conditions: reticulocytes

Structure (SMILES) | IC50
CN(C)c1ccc(C(=C2C=CC(=[N+](C)C)C=C2)c2ccc(N(C)C)cc2)cc1.[Cl-] [GENTIAN VIOLET] | Not Active
Cc1ccc(S(=O)(=O)NC(=O)NN2CC3CCCC3C2)cc1 (centres undefined) [GLICLAZIDE] | Not Active
CC(C)Cc1ccc(C(C)C(=O)O)cc1 (centres undefined) [IBUPROFEN] | Not Active
COc1ccc2c(c1)c(CC(=O)O)c(C)n2C(=O)c1ccc(Cl)cc1 [INDOMETHACIN] | Not Active
CCc1c2c(nc3ccc(OC(=O)N4CCC(N5CCCCC5)CC4)cc13)-c1cc3c(c(=O)n1C2)COC(=O)[C@]3(O)CC [IRINOTECAN] | Not Active
CC(C(=O)O)c1cccc(C(=O)c2ccccc2)c1 (centres undefined) [KETOPROFEN] | Not Active
Nc1ccn([C@@H]2CS[C@H](CO)O2)c(=O)n1 [LAMIVUDINE] | Not Active
O=S(=O)([O-])CCS.[Na+] [MESNA] | Not Active
C#C[C@]1(O)CC[C@H]2[C@@H]3CCc4cc(OC)ccc4[C@H]3CC[C@@]21C [MESTRANOL] | Not Active

Target: Mitogen-activated protein kinase 1 (Homo sapiens, UniProt P28482)
Sequence (P28482 whole entry): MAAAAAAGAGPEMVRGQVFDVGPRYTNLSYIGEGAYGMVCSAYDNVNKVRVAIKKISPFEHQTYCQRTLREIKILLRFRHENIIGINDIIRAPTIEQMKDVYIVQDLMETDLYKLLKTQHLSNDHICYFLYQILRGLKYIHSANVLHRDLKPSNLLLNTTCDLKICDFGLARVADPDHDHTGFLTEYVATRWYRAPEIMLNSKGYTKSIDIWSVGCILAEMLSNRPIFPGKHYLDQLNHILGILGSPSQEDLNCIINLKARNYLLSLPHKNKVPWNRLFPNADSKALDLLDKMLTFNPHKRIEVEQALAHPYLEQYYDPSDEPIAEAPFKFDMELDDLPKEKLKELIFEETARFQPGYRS
Assay: DRUGMATRIX: Protein Serine/Threonine Kinase, ERK2 enzyme inhibition (substrate: Myelin Basic Protein)
Set-up: species or system Escherichia coli
Conditions: Not Active = under 50% inhibition at 10 µM

Structure (SMILES) | IC50
CN(C)c1ccc(C(=C2C=CC(=[N+](C)C)C=C2)c2ccc(N(C)C)cc2)cc1.[Cl-] [GENTIAN VIOLET] | Not Active
Cc1ccc(S(=O)(=O)NC(=O)NN2CC3CCCC3C2)cc1 (centres undefined) [GLICLAZIDE] | Not Active
CC(C)Cc1ccc(C(C)C(=O)O)cc1 (centres undefined) [IBUPROFEN] | Not Active
COc1ccc2c(c1)c(CC(=O)O)c(C)n2C(=O)c1ccc(Cl)cc1 [INDOMETHACIN] | Not Active
CCc1c2c(nc3ccc(OC(=O)N4CCC(N5CCCCC5)CC4)cc13)-c1cc3c(c(=O)n1C2)COC(=O)[C@]3(O)CC [IRINOTECAN] | Not Active
CC(C(=O)O)c1cccc(C(=O)c2ccccc2)c1 (centres undefined) [KETOPROFEN] | Not Active
Nc1ccn([C@@H]2CS[C@H](CO)O2)c(=O)n1 [LAMIVUDINE] | Not Active
O=S(=O)([O-])CCS.[Na+] [MESNA] | Not Active
C#C[C@]1(O)CC[C@H]2[C@@H]3CCc4cc(OC)ccc4[C@H]3CC[C@@]21C [MESTRANOL] | Not Active

Target: Cytochrome P450 2C19 (Homo sapiens, UniProt P33261); further: in other assays of this panel Not Active means under 50% inhibition at 10 µM
Sequence (P33261 whole entry): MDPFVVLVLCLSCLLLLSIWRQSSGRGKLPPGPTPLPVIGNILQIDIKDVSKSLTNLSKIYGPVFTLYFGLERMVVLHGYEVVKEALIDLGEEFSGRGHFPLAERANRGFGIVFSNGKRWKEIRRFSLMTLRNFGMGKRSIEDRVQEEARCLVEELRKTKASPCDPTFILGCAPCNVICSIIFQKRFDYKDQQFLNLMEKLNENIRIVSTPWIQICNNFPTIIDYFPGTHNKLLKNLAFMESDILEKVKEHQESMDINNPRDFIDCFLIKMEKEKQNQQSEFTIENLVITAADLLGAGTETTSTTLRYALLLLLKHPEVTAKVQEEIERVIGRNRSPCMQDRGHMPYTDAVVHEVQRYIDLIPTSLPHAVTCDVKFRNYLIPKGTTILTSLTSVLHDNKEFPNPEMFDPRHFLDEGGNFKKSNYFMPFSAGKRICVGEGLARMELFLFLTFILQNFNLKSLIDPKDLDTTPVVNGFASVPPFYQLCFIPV
Assay: not given
Conditions: bti-tn-5b1-4

Structure (SMILES) | IC50 | Ki
CN(C)c1ccc(C(=C2C=CC(=[N+](C)C)C=C2)c2ccc(N(C)C)cc2)cc1.[Cl-] [GENTIAN VIOLET] | Not Active | Not Active
Cc1ccc(S(=O)(=O)NC(=O)NN2CC3CCCC3C2)cc1 (centres undefined) [GLICLAZIDE] | Not Active | Not Active
CC(C)Cc1ccc(C(C)C(=O)O)cc1 (centres undefined) [IBUPROFEN] | Not Active | Not Active
COc1ccc2c(c1)c(CC(=O)O)c(C)n2C(=O)c1ccc(Cl)cc1 [INDOMETHACIN] | Not Active | Not Active
CCc1c2c(nc3ccc(OC(=O)N4CCC(N5CCCCC5)CC4)cc13)-c1cc3c(c(=O)n1C2)COC(=O)[C@]3(O)CC [IRINOTECAN] | Not Active | Not Active
CC(C(=O)O)c1cccc(C(=O)c2ccccc2)c1 (centres undefined) [KETOPROFEN] | Not Active | Not Active
Nc1ccn([C@@H]2CS[C@H](CO)O2)c(=O)n1 [LAMIVUDINE] | Not Active | Not Active
O=S(=O)([O-])CCS.[Na+] [MESNA] | Not Active | Not Active
C#C[C@]1(O)CC[C@H]2[C@@H]3CCc4cc(OC)ccc4[C@H]3CC[C@@]21C [MESTRANOL] | Not Active | Not Active
